Test results reported in patent US20100035856A1, “Beta-LACTAM-CONTAINING FORMULATIONS WITH INCREASED STABILITY IN AQUEOUS SOLUTION” (BAYER ANIMAL HEALTH GMBH, priority 2007, published 2010).

Assay: Stability of amoxicillin/K-clavulanate 4:1 in aqueous solution with urea
Format: physicochemical

| Structure (SMILES) | loss of active ingredient (amoxicillin in aqueous amoxiclav solution containing 40% urea, within 24 hours) | stability of clavulanic acid, effect of urea (aqueous amoxiclav solution with urea (FIG. 4)) |
| --- | --- | --- |
| CC1(C)S[C@@H]2[C@H](NC(=O)[C@H](N)c3ccc(O)cc3)C(=O)N2[C@H]1C(=O)O [amoxicillin] | less than 10% | – |
| O=C(O)[C@H]1/C(=C/CO)O[C@@H]2CC(=O)N21 [clavulanic acid] | – | not adversely affected at all |
